Experiments:
rats = assay: Sedative studies in rats (0-4 sedation score); assay type: in vivo, rat
Experimental: The relative potency of fospropofol given via different administration routes was investigated in rats, using sedation as an end point. Intravenous fospropofol doses of 5-40 mg/kg were chosen based on previous studies (Schywalsky, et al., 2003). Based on expected lower oral bioavailability, doses of 100-400 mg/kg were chosen for the PO and ID studies. Following administration of fospropofol, two experimental observers blinded to the treatment, graded the behavior of the rats (n=2-3 per experimental group) every 5 min for a total of 120 min after administration. […] Scores were averaged across treatment groups per time point.

[1] = Intranasal fospropofol in rats: plasma and brain levels; assay type: in vivo, rat
[2] = Buccal delivery of fospropofol in monkeys: plasma and CSF levels; assay type: in vivo, monkey
Experimental: In this example, monkeys were dosed with 50 mg fospropofol by buccal administration. Plasma and CSF were collected before treatment (graphed as t=0), 15 minutes, 30 minutes, 1 hr and 2 hr. Samples were analyzed for propofol and fospropofol by LCMS.

[3] = Pharmacokinetic studies in rats: fospropofol and propofol in plasma after IV, PO or ID fospropofol; conditions: for F of fospropofol (vs 5 mg/kg IV) / F of propofol (vs 5 mg/kg IV fospropofol): rats
Experimental: Male Sprague-Dawley rats (Charles River, Md., USA) weighing 200-250 g were used, unless otherwise noted. Animals were housed in groups of three-inch suspended polycarbonate cages (18-inches long, 9-inches wide and 9-inches high) under a 12-h light/dark cycle. Food (Harlan/Teklab) and water (filtered and delivered via an automatic watering system) were provided ad libitum. All procedures were conducted in compliance with the laws, regulations and guidelines of the National Institutes of Health (NIH/PHS) and with approval from the local Animal Care and Use committee.
For animal studies, a fospropofol dosing solution was made by dissolving powder in water (for oral and intra-duodenal administration) or saline (for intravenous administration) into an administration volume of 1 or 2 mL/kg, as noted.
Male Sprague-Dawley rats (225-250 g) underwent implantation with indwelling jugular vein catheters for plasma sampling. Animals receiving intravenous (IV) drug administration also underwent femoral vein catheterization and, after full recovery were attached to an electronic infusion pump and administered vehicle or various concentrations of fospropofol in 1 mL total volume by gradual constant rate infusion over 10 min. Intraduodenal (ID) administration was via previously implanted catheters (HILLTOP Labs, PA) in a constant volume of 2 mL/kg body weight, by slow infusion. Oral administration (PO) was performed via a curved bulb-tipped feeding gavage tube attached to a syringe inserted carefully through the oesophagus via the side of the mouth of manually restrained rats using an administration volume of 1 mL/kg. On the day of testing, control blood samples were taken from the jugular vein prior to dosing of test compounds in conscious rats. In these studies, intravenous doses were based on previously reported behavioral and pharmacokinetic studies with fospropofol. The PO and ID doses were established based on preliminary experiments with behavioral observation, using higher doses based on lower expected oral bioavailability.
After fospropofol administration, blood samples (0.5 mL) were taken at 5, 15, 30, 45, 60, 120, 240 and 360 min post dose. An equivalent volume of blood taken from donor rats of the same strain was administered after each blood sample withdrawal, in an effort to maintain blood volume as previously described (Skrajnar, et al., 2009; Moghaddam, et al., 2002; Choi, et al., 2007). Approximately 0.05 mL of 200 mg/mL of sodium orthovanadate (SOV) solution was added to the heparinized blood collection tubes prior to blood collection to prevent ex vivo conversion via alkaline phosphatases (ALP). The blood samples were mixed, cooled and subsequently centrifuged at 3,000 rpm and 4° C. for 10 min within 30 min of collection. Plasma samples were stored at −20° C. until analysis.
For fospropofol analysis, fospropofol-d6 (internal standard prepared in 1.0 M ammonium acetate buffer) was added to the plasma samples (rat or human: 0.05 mL) and subsequently extracted using a solid phase extraction (SPE). The SPE cartridges were conditioned by gravity with methanol and 1.0 M ammonium acetate solution in water. The plasma samples with internal standard were loaded on the cartridges, washed with water and 10% methanol/water and eluted with methanol. The tubes were then evaporated under nitrogen and the residues reconstituted with 50/50 methanol/25 mM ammonium acetate in deionized water. The sample extract was then injected onto a reversed phase HPLC Zorbax Eclipse XDB-C18 column. The separated analytes were detected using tandem mass spectrometry (MS/MS) detection.

[4] = rat, oral propofol; cited from earlier work
[5] = male, Sprague-Dawley, rat, plasma, 30 mg/kg
[6] = male, Sprague-Dawley, rat, plasma, 100 mg/kg
[7] = male, Sprague-Dawley, rat, plasma, iv, 5 mg/kg
[8] = male, Sprague-Dawley, rat, plasma, po, 20 mg/kg
[9] = male, Sprague-Dawley, rat, plasma, po, 100 mg/kg

Question: For CC(C)c1cccc(C(C)C)c1OCOP(=O)(O)O [fospropofol], which “dose inducing full sedation (average score 3.5 or higher)” value (shortened to “dose inducing full sedation”) (rats; ID) is on record?
Answer: The value was 50 mg/kg.

Question: What about the “onset of sedation after administration” value (rats; ID) of the same compound?
Answer: The value was at most 5 min.

Question: What about the “dose inducing full sedation” value (rats; IV) of the same compound?
Answer: Its value is 40 mg/kg.

Question: And the “onset of sedative effects” value (rats; IV 10-40 mg/kg)?
Answer: The value was at most 1 min.

Question: What about the “sedative effects abated after infusion” value (rats; IV 10-40 mg/kg) of the same compound?
Answer: The value was at most 30 min.

Question: What about the “dose inducing full sedation” value (rats; PO) of the same compound?
Answer: Its value is 300 to 400 mg/kg.

Question: What about the “onset of sedated behavior after dosing” value (rats; PO) of the same compound?
Answer: Its value is 5 to 10 min.

Question: And the degree of sedation (rats; PO 100-200 mg/kg)?
Answer: Its degree of sedation is “mild to moderate sedation”.

Question: And the duration of sedation (rats; PO 100-200 mg/kg)?
Answer: Its duration of sedation is 1 to 2 h.

Question: What about the “duration of loss of consciousness” value (rats; PO 300 and 400 mg/kg) of the same compound?
Answer: Its value is at most 1 h.

Question: And the “fospropofol in plasma after intranasal fospropofol” value [1]?
Answer: Its value is “appreciable plasma concentrations”.

Question: What about the “time of fospropofol peak in plasma” value ([2]; 50 mg buccal) of the same compound?
Answer: The value was 30 to 60 min.

Question: And the “fospropofol plasma level by 2 hr” value ([2]; 50 mg buccal, 2 hr)?
Answer: Its value is “below the limit of quantification”.

Question: And the concentration at 15 min ([2]; monkey, CSF, other: buccal, 50 mg buccal, 15 minutes, read-out: CSF fospropofol, one high point)?
Answer: The concentration at 15 min was about 850 nM.

Question: What about the Cmax ([2]; monkey, plasma, 50 mg buccal) of the same compound?
Answer: The Cmax was about 150 nM.

Question: And the AUC(0-inf) [3, 5]?
Answer: The AUC(0-inf) was 50 ng·h/mL.

Question: What about the AUC(0-t) [3, 5] of the same compound?
Answer: The AUC(0-t) was 44 ng·h/mL.

Question: And the Cmax [3, 5]?
Answer: The Cmax was 170 ng/mL.

Question: What about the half-life [3, 5] of the same compound?
Answer: The half-life was 12.6 min.

Question: And the AUC(0-inf) [3, 6]?
Answer: Its AUC(0-inf) is 650 ng·h/mL.

Question: And the AUC(0-t) [3, 6]?
Answer: Its AUC(0-t) is 644 ng·h/mL.

Question: And the Cmax [3, 6]?
Answer: Its Cmax is 3740 ng/mL.

Question: What about the half-life [3, 6] of the same compound?
Answer: Its half-life is 13.8 min.

Question: What about the AUC(0-inf) [3, 7] of the same compound?
Answer: The AUC(0-inf) was 3150 ng·h/mL.

Question: And the AUC(0-t) [3, 7]?
Answer: The AUC(0-t) was 3150 ng·h/mL.

Question: And the Cmax [3, 7]?
Answer: The Cmax was 16300 ng/mL.

Question: And the Vd [3, 7]?
Answer: Its Vd is 1.02 L/kg.

Question: And the clearance [3, 7]?
Answer: Its clearance is 23 mL/min/kg.

Question: And the half-life [3, 7]?
Answer: Its half-life is 29.4 min.

Question: And the AUC(0-inf) [3, 8]?
Answer: Its AUC(0-inf) is 60 ng·h/mL.

Question: And the AUC(0-t) [3, 8]?
Answer: Its AUC(0-t) is 50 ng·h/mL.

Question: What about the Cmax [3, 8] of the same compound?
Answer: The Cmax was 230 ng/mL.

Question: And the half-life [3, 8]?
Answer: The half-life was 11.4 min.

Question: And the AUC(0-inf) [3, 9]?
Answer: The AUC(0-inf) was 2180 ng·h/mL.

Question: What about the AUC(0-t) [3, 9] of the same compound?
Answer: Its AUC(0-t) is 2160 ng·h/mL.

Question: And the Cmax [3, 9]?
Answer: The Cmax was 9230 ng/mL.

Question: And the half-life [3, 9]?
Answer: The half-life was 29.4 min.

Question: What about the “F of fospropofol (vs 5 mg/kg IV)” value ([3]; fospropofol 20 mg/kg PO) of the same compound?
Answer: Its value is 0.448%.

Question: And the “F of fospropofol (vs 5 mg/kg IV)” value ([3]; fospropofol 30 mg/kg ID)?
Answer: The value was 0.264%.

Question: And the “F of fospropofol (vs 5 mg/kg IV)” value ([3]; fospropofol 100 mg/kg ID)?
Answer: Its value is 1.03%.

Question: What about the “F of fospropofol (vs 5 mg/kg IV)” value ([3]; fospropofol 100 mg/kg PO) of the same compound?
Answer: Its value is 3.46%.

Question: For CC(C)c1cccc(C(C)C)c1O [propofol, 2,6-diisopropylphenol], which bioavailability of propofol [4] is on record?
Answer: Its bioavailability of propofol is 10%.

Question: And the “highest propofol level in plasma” value ([2]; 50 mg fospropofol buccal, at 2 hours)?
Answer: The value was “about 500 nM”.

Question: And the “propofol in CSF” value ([2]; 50 mg fospropofol buccal, limit of quantitation 10 nM)?
Answer: The value was “only 2 samples are above the limit of quantitation”.

Question: And the bioavailability ([3]; male, Sprague-Dawley, rat, plasma)?
Answer: Its bioavailability is about 100%.

Question: What about the bioavailability ([3]; male, Sprague-Dawley, rat, plasma, po) of the same compound?
Answer: Its bioavailability is 20 to 70%.

Question: And the bioavailability [3, 9]?
Answer: Its bioavailability is at least 70%.

Question: What about the “F of propofol (vs 5 mg/kg IV fospropofol)” value ([3]; fospropofol 20 mg/kg PO) of the same compound?
Answer: Its value is 22.7%.

Question: What about the “F of propofol (vs 5 mg/kg IV fospropofol)” value ([3]; fospropofol 30 mg/kg ID) of the same compound?
Answer: Its value is 47.3%.

Question: What about the “F of propofol (vs 5 mg/kg IV fospropofol)” value ([3]; fospropofol 100 mg/kg ID) of the same compound?
Answer: The value was 141%.

Question: And the “F of propofol (vs 5 mg/kg IV fospropofol)” value ([3]; fospropofol 100 mg/kg PO)?
Answer: Its value is 70.5%.

Source: patent US11331271B2, “Buccal, sublingual and intranasal delivery of fospropofol” (The Johns Hopkins University, priority 2016, dated 2022)
